Laboratory results as given in article PMC7576996, “Antiparasitic Behavior of Trifluoromethylated Pyrazole 2-Amino-1,3,4-thiadiazole Hybrids and Their Analogues: Synthesis and Structure-Activity Relationship” (Frontiers in Pharmacology, 2020).

Experiments:
[1] = test system: promastigote form of Leishmania amazonensis; assay: Antiproliferative assay, promastigote form of Leishmania amazonensis (XTT, 72 h); type: cell-based; details: for SI L-M, selectivity index (Macrophages CC50/L. amazonensis IC50): J774A1 vs promastigotes; for SI L-E, selectivity index (Epithelial CC50/L. amazonensis IC50): LLCMK2 vs promastigotes; for IC50: Leishmania amazonensis, promastigote form, 72 h, mean ± standard deviation, read-out: L. amazonensis IC50
Procedure: (§1) All the novel trifluoromethylated pyrazoles derivatives 2a–f, 3a–f, and 4a–f were evaluated against the promastigote form of L. amazonensis and the epimastigote form of T. cruzi. The results are reported as the concentration causing a 50% inhibition in cell growth (IC50). Additionally, the toxicity of compounds was evaluated against two different cell lines: epithelial cell LLCMK2 and macrophages J774A1. The antiproliferative and cytotoxic activities are shown in Table 2 , as well as the calculated selectivity index (SI).
(§2) 2.4. Antiproliferative activity
(§3) Promastigotes forms of Leishmania amazonensis (strain WHOM/ BR/75/JOSEFA) were
(§4) cultured in Warren medium (brain heart infusion, hemin, and folic acid; pH 7.4) supplemented with
(§5) 10% fetal bovine serum (FBS) at 25 °C. Epimastigote forms of Trypanosoma cruzi (Y strain) were
(§6) cultured in LIT medium (liver infusion tryptose; hemim, and folic acid; pH 7.4) supplemented with
(§7) Cytotoxicity activity was determined in LLCMK2 (epithelial cells of kidney of Macaca
(§8) mulatta) cells and J774A1 macrophages. LLCMK2 (epithelial cells of kidney of Macaca mulatta) cells
(§9) were cultured in Dulbecco’s modified Eagle’s medium (DMEM, pH 7.2) supplemented with 10% FBS
(§10) at 37 °C in a 5% CO2 atmosphere. J774A1 macrophages were cultured in RPMI-1640 (pH 7.2) medium
(§11) supplemented with 10% FBS at 37 °C in a 5% CO2 atmosphere.
(§12) 2.4.2. Dilution of compounds
(§13) Stock solutions of the compounds were prepared in DMSO and then diluted in the respective
(§14) medium. The groups (controls and treated) were tested with DMSO concentrations below 1%, with
(§15) 2.4.3. Antiproliferative assay
(§16) Promastigote forms (1 × 10^6 parasites/mL) were cultured in 96-well plates in the presence and
(§17) absence of different concentrations of compounds diluted in Warren medium supplemented with 10%
(§18) FBS and incubated for 72h. Epimastigote forms (1 × 10^6 parasites/mL) were cultured in 96 -well plates
(§19) in the presence and absence of different concentrations of compounds diluted in LIT medium
(§20) supplemented with 10% FBS and incubated for 96h. After treatment, the parasites were incu bated with
(§21) a solution of 2,3 -bis (2 -methoxy -4-nitro -5-sulfophenyl) -2H-tetrazolium -5-carboxanilide (XTT; 0.5
(§22) mg/mL) and phenazine methanesulfonate activator (PMS; 0.06 mg/mL) in PBS for 4h. Then, the
(§23) absorbance was read in a microplate reader (Bio Tek - Power Wave XS) at 450 nm. The percentage of
(§24) viable parasites was calculated in relation to the control in order to determine the concentration that
(§25) inhibits 50% of the protozoa (IC 50).
(§26) 2.4.4. Cytotoxicity assay
(§27) LLCMK2 cells (2.5 × 10^5 cells/mL) suspension was prepared in DMEM medium supplemented
(§28) with 10% FBS and added to 96-well plates. Then, the plates were incubated at 37 °C in a
(§29) CO2 atmosphere for 24h to obtain confluent cell growth. After incubation, cells were treated or not
(§30) with different concentrations of compounds diluted in DMEM for 72 h. Macrophage (5 × 10^5 cells/mL)
(§31) suspension was prepared in RPMI-1640 medium supplemented with 10% FBS and added to 96-well
(§32) plates. Then, the plates were incubated at 37 °C in a CO2 atmosphere for 24h to obtain confluent cell
(§33) growth. After incubation, cells were treated or not with different concentrations of compounds diluted
(§34) in RPMI-1640 for 48h. After treatment, medium was removed and cells were incubated with MTT (2
(§35) mg/mL) for 4h. Then, DMSO was added for solubilization of the formazan and analyzed with a reading

[2] = Cytotoxicity assay in J774A1 macrophages (MTT, 48 h); type: cell-based; details: mouse, pH 7.2, J774A1, 50% inhibition of growth
Procedure: as §1
(§36) 2.4. Antiproliferative activity […]
as §7, §8, §9, §10, §11, §12, §13, §14
(§37) 2.4.3. Antiproliferative assay […]
as §26, §27, §28, §29, §30, §31, §32, §33, §34, §35
(§38) microplate reader (BIO-TEK PowerWave XS spectrophotometer) at 392 nm. The percentage of viable
(§39) cells was calculated in relation to the control to determine the cytotoxic concentration to 50% of the […]

[3] = Cytotoxicity assay in LLCMK2 epithelial cells (MTT, 72 h); type: cell-based; details: Macaca mulatta, LLCMK2 kidney epithelial cells, pH 7.2, LLCMK2, 50% inhibition of growth
Procedure: as §1, §36, §7, §8, §9, §10, §11, §12, §13, §14, §37, §26, §27, §28, §29, §30, §31, §32, §33, §34, §35, §38, §39

[4] = test system: epimastigote form of Trypanosoma cruzi; assay: Antiproliferative assay, epimastigote form of Trypanosoma cruzi (XTT, 96 h); type: cell-based; details: for SI T-M, selectivity index (Macrophages CC50/T. cruzi IC50): J774A1 vs epimastigotes; for SI T-E, selectivity index (Epithelial CC50/T. cruzi IC50): LLCMK2 vs epimastigotes; for IC50: Trypanosoma cruzi, epimastigote form, 96 h, mean ± standard deviation, read-out: T. cruzi IC50
Procedure: as §1, §2, §3, §4, §5, §6, §7, §8, §9, §10, §11, §12, §13, §14, §15, §16, §17, §18, §19, §20, §21, §22, §23, §24, §25, §26, §27, §28, §29, §30, §31, §32, §33, §34, §35

Row | Compound | SI L-M, selectivity index (Macrophages CC50/L. amazonensis IC50) [1] | SI L-E, selectivity index (Epithelial CC50/L. amazonensis IC50) [1] | IC50 [1] [µM] | melting point [°C] | CC50 at 48 h [2] [µM] | CC50 at 72 h [3] [µM] | SI T-M, selectivity index (Macrophages CC50/T. cruzi IC50) [4] | SI T-E, selectivity index (Epithelial CC50/T. cruzi IC50) [4] | IC50 [4] [µM]
1 | CSC(N)=NN=Cc1c(C(F)(F)F)nn(-c2ccccc2)c1-c1ccc(F)cc1 [3b] | 5.90 | 3.48 | 34.3 ± 4.7 | 145.5 | 202 ± 3.4 | 119 ± 3 | 5.07 | 2.99 | 39.9 ± 3.2
2 | CSC(N)=NN=Cc1c(C(F)(F)F)nn(-c2ccccc2)c1-c1ccc(Cl)cc1 [3c] | 9.80 | 9.68 | 30.7 ± 2.2 | 188.5 | 301 ± 3.9 | 297 ± 6.1 | 8.09 | 7.99 | 37.2 ± 4.8
3 | CSC(N)=NN=Cc1c(C(F)(F)F)nn(-c2ccccc2)c1-c1ccc(Br)cc1 [3d] | 10.55 | 8.20 | 13.9 ± 0.6 | – | 147 ± 3.6 | 114 ± 3.8 | 5.71 | 4.44 | 25.7 ± 2.5
4 | CSC(N)=NN=Cc1c(C(F)(F)F)nn(-c2ccccc2)c1-c1ccccc1 [3e] | 7.30 | 4.53 | 44.7 ± 5 | 165.65 | 326 ± 4.5 | 202 ± 6.2 | 5.23 | 3.25 | 62.4 ± 3.8
5 | COc1ccc(-c2c(C=NN=C(N)SC)c(C(F)(F)F)nn2-c2ccccc2)cc1 [3f] | 8.65 | 7.13 | 14.2 ± 1.1 | – | 123 ± 3.1 | 101 ± 2.4 | 6.43 | 5.30 | 19.1 ± 0.9
6 | Nc1nnc(-c2c(C(F)(F)F)nn(-c3ccccc3)c2-c2ccc([N+](=O)[O-])cc2)s1 [4a, 4-[(2-amino)-1,3,4-thiadiazo-5-yl]-3-trifluoromethyl-5-(4-nitrophenyl)-1-phenyl-1H-pyrazole] | 14.56 | 10.78 | 19.6 ± 1.5 | 236.7 | 285 ± 5.6 | 211 ± 3.1 | 9.84 | 7.29 | 29 ± 2.7
7 | Nc1nnc(-c2c(C(F)(F)F)nn(-c3ccccc3)c2-c2ccccc2)s1 [4e, 4-[(2-amino)-1,3,4-thiadiazo-5-yl]-3-trifluoromethyl-1,5-diphenyl-1H-pyrazole] | 6.49 | 5.04 | 52.4 ± 3.5 | – | 340 ± 5.2 | 264 ± 3.2 | 5.18 | 4.03 | 65.6 ± 2.9
